Eight compounds from US10093630B2, “Pyrazole compounds and methods of making and using same” (ABIDE THERAPEUTICS, INC., priority 2014, dated 2018) can be followed below.

The structures appear in SMILES notation.

Holding throughout (experiment): In vitro competitive activity-based protein profiling (gel-based, FP-Rh or HT-01 probe)
Common to all, as to format: biochemical

One experiment addresses T1, PLA2G7 (Mus musculus, UniProt Q60963).
T1 construct: Proteomes (mouse brain membrane fraction or cell lysates); from tissue; host or cells: mouse brain membrane fraction (or cell lysates, not specified)
T1 sequence (Q60963 22-440): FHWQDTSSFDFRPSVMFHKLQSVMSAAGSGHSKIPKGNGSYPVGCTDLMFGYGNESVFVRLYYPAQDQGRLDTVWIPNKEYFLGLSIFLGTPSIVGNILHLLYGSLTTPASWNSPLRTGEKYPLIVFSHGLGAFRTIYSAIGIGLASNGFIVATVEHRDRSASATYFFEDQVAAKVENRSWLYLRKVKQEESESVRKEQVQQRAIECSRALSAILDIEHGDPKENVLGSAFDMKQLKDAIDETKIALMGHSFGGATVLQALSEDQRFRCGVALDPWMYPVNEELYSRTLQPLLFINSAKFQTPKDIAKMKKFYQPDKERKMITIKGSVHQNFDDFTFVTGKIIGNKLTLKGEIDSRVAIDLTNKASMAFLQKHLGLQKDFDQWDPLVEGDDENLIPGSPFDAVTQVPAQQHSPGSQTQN
Particulars: for inhibition at 1 µM: 1 μM inhibitor, read-out: % Inhibition at 1 μM, D = PLA2G7; for IC50: mouse brain membrane fraction or cell lysates, 30 min preincubation at 37° C. An outline of the steps: (§1)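 Mouse brain membrane or cell lysate proteomes (1.0 mg/mL) preincubated with inhibitors 30 min at 37° C, then labelled with FP-Rh or HT-01 for 30 min at 37° C. After SDS-PAGE, activity quantified from fluorescent band intensity.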

The next experiment addresses T2, MAGL (Mus musculus, UniProt O35678).
T2 construct: Proteomes (mouse brain membrane fraction or cell lysates); from tissue; host or cells: mouse brain membrane fraction (or cell lysates, not specified)
T2 sequence (O35678 1-303): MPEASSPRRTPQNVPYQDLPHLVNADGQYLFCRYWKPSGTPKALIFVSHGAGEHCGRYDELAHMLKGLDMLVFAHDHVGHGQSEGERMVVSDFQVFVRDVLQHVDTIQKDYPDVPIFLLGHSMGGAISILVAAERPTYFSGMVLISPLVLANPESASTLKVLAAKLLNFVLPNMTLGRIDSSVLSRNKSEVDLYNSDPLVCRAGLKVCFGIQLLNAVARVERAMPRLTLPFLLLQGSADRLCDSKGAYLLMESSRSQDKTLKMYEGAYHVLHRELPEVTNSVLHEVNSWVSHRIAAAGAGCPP
Particulars: for inhibition at 1 µM: 1 μM inhibitor; for IC50: mouse brain membrane fraction or cell lysates, 30 min preincubation at 37° C., read-out: Mouse (IC50 value, nM) MAGL. In short, it runs like this:
as §1

The target of a further experiment is T3, FAAH (Mus musculus, UniProt O08914).
T3 construct: Proteomes (mouse brain membrane fraction or cell lysates); from tissue; host or cells: mouse brain membrane fraction (or cell lysates, not specified)
T3 sequence (O08914 1-579): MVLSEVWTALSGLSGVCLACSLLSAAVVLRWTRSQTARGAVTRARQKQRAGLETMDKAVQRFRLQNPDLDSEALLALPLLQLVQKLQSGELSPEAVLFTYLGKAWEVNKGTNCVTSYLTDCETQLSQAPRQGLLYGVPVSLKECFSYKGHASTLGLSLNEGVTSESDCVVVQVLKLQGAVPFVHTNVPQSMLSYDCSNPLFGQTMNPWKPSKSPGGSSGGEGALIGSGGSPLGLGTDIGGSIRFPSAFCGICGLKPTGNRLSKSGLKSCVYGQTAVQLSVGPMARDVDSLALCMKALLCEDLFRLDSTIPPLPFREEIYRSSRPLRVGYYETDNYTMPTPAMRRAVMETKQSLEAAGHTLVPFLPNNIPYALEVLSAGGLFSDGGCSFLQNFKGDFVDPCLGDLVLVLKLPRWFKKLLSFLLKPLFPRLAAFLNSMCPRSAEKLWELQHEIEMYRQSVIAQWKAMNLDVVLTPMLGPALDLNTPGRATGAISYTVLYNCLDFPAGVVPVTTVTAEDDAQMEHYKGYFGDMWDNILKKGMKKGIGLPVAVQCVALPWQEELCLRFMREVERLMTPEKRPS
The note with it: for inhibition at 1 µM: 1 μM inhibitor, read-out: % Inhibition at 1 μM, B = FAAH; for IC50: mouse brain membrane fraction or cell lysates, 30 min preincubation at 37° C., read-out: Mouse (IC50 value, nM) FAAH. An outline of the steps:
as §1

The next experiment deals with T4, ABHD6 (Mus musculus, UniProt Q8R2Y0).
T4 construct: Proteomes (mouse brain membrane fraction or cell lysates); from tissue; host or cells: mouse brain membrane fraction (or cell lysates, not specified)
T4 sequence (Q8R2Y0 1-336): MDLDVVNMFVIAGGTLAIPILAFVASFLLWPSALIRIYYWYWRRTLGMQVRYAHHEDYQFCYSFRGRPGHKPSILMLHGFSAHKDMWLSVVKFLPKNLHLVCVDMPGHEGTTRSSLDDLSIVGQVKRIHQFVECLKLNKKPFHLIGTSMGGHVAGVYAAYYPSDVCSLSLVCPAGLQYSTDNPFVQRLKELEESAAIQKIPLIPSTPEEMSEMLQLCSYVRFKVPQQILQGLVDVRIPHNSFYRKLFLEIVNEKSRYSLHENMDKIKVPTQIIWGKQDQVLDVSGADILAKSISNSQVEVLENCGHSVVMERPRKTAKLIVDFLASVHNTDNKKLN
The note with it: for inhibition at 1 µM: 1 μM inhibitor, read-out: % Inhibition at 1 μM, C = ABHD6; for IC50: mouse brain membrane fraction or cell lysates, 30 min preincubation at 37° C., read-out: Mouse (IC50 value, nM) ABHD6. An outline of the steps: as §1

In the case of `CCN(Cc1ccc(N2CCOCC2)cc1)C(=O)n1cc(C#N)cn1` [Example 263, 4-Cyano-N-ethyl-N-(4-morpholinobenzyl)-1H-pyrazole-1-carboxamide], the inhibition at 1 µM on PLA2G7 (gel-based competitive ABPP) was less than 25%; at MAGL (gel-based competitive ABPP), more than 75%; at FAAH (gel-based competitive ABPP), more than 75%; at ABHD6 (gel-based competitive ABPP), 25 to 75%. In addition, the half-maximal inhibitory concentration (IC50) on PLA2G7 was more than 1000 nM; on MAGL, 100 to 1000 nM; at FAAH, less than 100 nM; on ABHD6 it was more than 1000 nM.

Take `CCN(Cc1ccc(N2CCOCC2)cc1)C(=O)n1cc(C(F)(F)F)cn1` [Example 264, N-Ethyl-N-(4-morpholinobenzyl)-4-(trifluoromethyl)-1H-pyrazole-1-carboxamide]: the inhibition at 1 µM is less than 25% at PLA2G7 (gel-based competitive ABPP), more than 75% on MAGL (gel-based competitive ABPP), more than 75% on FAAH (gel-based competitive ABPP) and less than 25% on ABHD6 (gel-based competitive ABPP). In addition, the IC50 on PLA2G7 was more than 1000 nM; on MAGL, 100 to 1000 nM; at FAAH, less than 100 nM; on ABHD6, more than 1000 nM.

`CCN(Cc1ccc(N2CCOCC2)cc1)C(=O)n1cc(C)cn1` [Example 265, N-Ethyl-4-methyl-N-(4-morpholinobenzyl)-1H-pyrazole-1-carboxamide]: the inhibition at 1 µM at PLA2G7 (gel-based competitive ABPP), on MAGL (gel-based competitive ABPP), at FAAH (gel-based competitive ABPP) and at ABHD6 (gel-based competitive ABPP) was less than 25% in each case.

`CCN(Cc1cccc(N2CCOCC2)c1)C(=O)n1cc(Cl)cn1` [Example 266, 4-Chloro-N-ethyl-N-(3-morpholinobenzyl)-1H-pyrazole-1-carboxamide]: the inhibition at 1 µM at PLA2G7 (gel-based competitive ABPP) is less than 25%; on MAGL (gel-based competitive ABPP) it was less than 25%; at FAAH (gel-based competitive ABPP), more than 75%; on ABHD6 (gel-based competitive ABPP), less than 25%. The inhibition at 10 µM was less than 25% on PLA2G7 (10 μM inhibitor, gel-based competitive ABPP, read-out: % Inhibition at 10 μM, D = PLA2G7); more than 75% on MAGL (10 μM inhibitor, gel-based competitive ABPP); more than 75% on FAAH (10 μM inhibitor, gel-based competitive ABPP, read-out: % Inhibition at 10 μM, B = FAAH); more than 75% at ABHD6 (10 μM inhibitor, gel-based competitive ABPP, read-out: % Inhibition at 10 μM, C = ABHD6). Moreover, the IC50 at PLA2G7 was more than 1000 nM; at MAGL, more than 1000 nM; at FAAH, 100 to 1000 nM; at ABHD6 it was more than 1000 nM.

As for `CCN(Cc1ccc(N2CCOCC2)cc1)C(=O)n1cc(Cl)cn1` [Example 267, 4-Chloro-N-ethyl-N-(4-morpholinobenzyl)-1H-pyrazole-1-carboxamide], the inhibition at 1 µM on PLA2G7 (gel-based competitive ABPP) is less than 25%; on MAGL (gel-based competitive ABPP), 25 to 75%; at FAAH (gel-based competitive ABPP) it was 25 to 75%; at ABHD6 (gel-based competitive ABPP), less than 25%.

For `O=C(N1CCN(Cc2cccc(Cl)c2)CC1)n1cc(C(F)(F)F)cn1` [Example 268, (4-(3-Chlorobenzyl)piperazin-1-yl)(4-(trifluoromethyl)-1H-pyrazol-1-yl)methanone], the inhibition at 1 µM at PLA2G7 (gel-based competitive ABPP), at MAGL (gel-based competitive ABPP), on FAAH (gel-based competitive ABPP) and at ABHD6 (gel-based competitive ABPP) was more than 75% each time. The IC50 at PLA2G7 is 100 to 1000 nM; at MAGL it was less than 100 nM; on FAAH it was less than 100 nM; on ABHD6 it was less than 100 nM.

In the case of `O=C(N1CCN(Cc2cccc(F)c2)CC1)n1cc(C(F)(F)F)cn1` [Example 269, (4-(3-Fluorobenzyl)piperazin-1-yl)(4-(trifluoromethyl)-1H-pyrazol-1-yl)methanone], the inhibition at 1 µM at PLA2G7 (gel-based competitive ABPP), on MAGL (gel-based competitive ABPP), on FAAH (gel-based competitive ABPP) and on ABHD6 (gel-based competitive ABPP) was more than 75% throughout. The IC50 at PLA2G7, at MAGL, at FAAH and at ABHD6 was less than 100 nM in each case.

With `Cc1cccc(CN2CCN(C(=O)n3cc(C(F)(F)F)cn3)CC2)c1` [Example 270, (4-(3-Methylbenzyl)piperazin-1-yl)(4-(trifluoromethyl)-1H-pyrazol-1-yl)methanone], the inhibition at 1 µM on PLA2G7 (gel-based competitive ABPP), on MAGL (gel-based competitive ABPP), on FAAH (gel-based competitive ABPP) and at ABHD6 (gel-based competitive ABPP) was more than 75% in each case.
